Experimental data taken from patent publication US20220289685A1, “ANTIMALARIAL HEXAHYDROPYRIMIDINE ANALOGUES” (UCB BIOPHARMA SRL, priority 2019, published 2022).
Counter-ions that a name gives are not always drawn.

Tested on: Plasmodium falciparum 3D7 strain
Experiment: P. falciparum 3D7 asexual blood stage assay (SYBR green readout)
Assay type: cell-based
Details: P. falciparum 3D7 in human erythrocytes, 72 h incubation, SYBR green fluorescence; read-out: IC50
How it was run: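 P. falciparum 3D7 in A+ erythrocytes (5% haematocrit, 0.5% parasitaemia) exposed 72 h at 37 °C under 1% O2/3% CO2 to 20-point 1.5-fold titrations, 50,000–15 nM in 0.5% DMSO. SYBR green lysis overnight, fluorescence 485/528 nm; normalized to mefloquine and DMSO, EC50 from biphasic two-site fit.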

| Compound | IC50 [nM] |
| --- | --- |
| COc1ncccc1C(=O)Nc1cccc([C@]2(C)CC(=O)N([C@@H]3CCO[C@H](C)C3)C(=N)N2)c1Cl (relative stereo) [Example 30, N-(2-Chloro-3-{(4S)-2-imino-4-methyl-1-[(2R*,4R*)-2-methyl-etrahydropyran-4-yl]-6-oxo-hexahydropyrimidin-4-yl]phenyl)-2-methoxypyridine-3-carboxamide trifluoroacetic acid salt] | 15 |

Same assay, conditions: Plasmodium falciparum, 3D7, Erythrocyte, 72 h

| Compound | IC50 [nM] |
| --- | --- |
| C[C@@H]1C[C@H](N2C(=N)N[C@](C)(c3cccc(NC(=O)c4ccccc4F)c3Cl)CC2=O)CCO1 (relative stereo) [Example 35, N-(2-Chloro-3-{(4S)-2-imino-4-methyl-1-[(2R*,4R*)-2-methyl-tetrahydropyran-4-yl]-6-oxo-hexahydropyrimidin-4-yl}phenyl)-2-fluorobenzamide trifluoroacetic acid salt] | 11 |
| Cc1ccc(C(=O)Nc2cccc([C@]3(C)CC(=O)N([C@@H]4CCO[C@H](C)C4)C(=N)N3)c2Cl)nn1 (relative stereo) [Example 54, N-(2-Chloro-3-{(4S)-2-imino-4-methyl-1-[(2R*,4R*)-2-methyl-tetrahydropyran-4-yl]-6-oxo-hexahydropyrimidin-4-yl}phenyl)-6-methylpyridazine-3-carboxamide hydrochloride] | 170 |
| C[C@@H]1C[C@H](N2C(=N)N[C@](C)(c3cccc(NC(=O)c4cccc(C#N)c4)c3Cl)CC2=O)CCO1 (relative stereo) [Example 20, N-(2-Chloro-3-{(4S)-2-imino-4-methyl-1-[(2R*,4R*)-2-methyl-tetrahydropyran-4-yl]-6-oxo-hexahydropyrimidin-4-yl}phenyl)-3-cyanobenzamide hydrochloride] | 8 |
| Cc1cnc(C(=O)Nc2cccc([C@]3(C)CC(=O)N([C@@H]4CCO[C@H](C)C4)C(=N)N3)c2Cl)cn1 (relative stereo) [Example 34, N-(2-Chloro-3-{(4S)-2-imino-4-methyl-1-[(2R*,4R*)-2-methyl-tetrahydropyran-4-yl]-6-oxo-hexahydropyrimidin-4-yl]phenyl)-5-methylpyrazine-2-carboxamide trifluoroacetic acid salt] | 60 |
| C[C@@H]1C[C@H](N2C(=N)N[C@](C)(c3cccc(NC(=O)c4ccccn4)c3Cl)CC2=O)CCO1 (relative stereo) [Example 6, N-(2-Chloro-3-{(4S)-2-imino-4-methyl-1-[(2R*,4R*)-2-methyl-tetrahydropyran-4-yl]-6-oxo-hexahydropyrimidin-4-yl}phenyl)-pyridine-2-carboxamide hydrochloride] | 33 |
| C[C@@H]1C[C@H](N2C(=N)N[C@](C)(c3cccc(NC(=O)c4ccc(C(F)(F)F)cc4)c3Cl)CC2=O)CCO1 (relative stereo) [Example 37, N-(2-Chloro-3-{(4S)-2-imino-4-methyl-1-[(2R*,4R*)-2-methyl-tetrahydropyran-4-yl]-6-oxo-hexahydropyrimidin-4-yl}phenyl)-4-(trifluoromethyl)benzamide trifluoroacetic acid salt] | 207 |
| C[C@@H]1C[C@H](N2C(=N)N[C@](C)(c3cccc(NC(=O)c4ccc(C(F)(F)F)cn4)c3Cl)CC2=O)CCO1 (relative stereo) [Example 18, N-(2-Chloro-3-{(4S)-2-imino-4-methyl-1-[(2R*,4R*)-2-methyl-tetrahydropyran-4-yl]-6-oxo-hexahydropyrimidin-4-yl}phenyl)-5-(trifluoromethyl)pyridine-2-carboxamide hydrochloride] | 46 |
| C[C@@H]1C[C@H](N2C(=N)N[C@](C)(c3cccc(NC(=O)c4cccc(C#N)c4)c3Cl)CC2=O)CCC1(F)F (relative stereo) [Example 25, N-(2-Chloro-3-{(4S)-1-[(1R*,3R*)-4,4-difluoro-3-methylcyclohexyl]-2-imino-4-methyl-6-oxohexahydro-pyrimidin-4-yl]phenyl)-3-cyano-benzamide trifluoroacetic acid salt] | 87 |
| C[C@@H]1C[C@H](N2C(=N)N[C@](C)(c3cccc(NC(=O)c4cncc(C(F)(F)F)c4)c3Cl)CC2=O)CCO1 (relative stereo) [Example 70, N-(2-Chloro-3-{(4S)-2-imino-4-methyl-1-[(2R*,4R*)-2-methyl-tetrahydropyran-4-yl]-6-oxo-hexahydropyrimidin-4-yl}phenyl)-5-(trifluoromethyl)pyridine-3-carboxamide hydrochloride] | 36 |
| C[C@@H]1C[C@H](N2C(=N)N[C@](C)(c3cccc(NC(=O)c4cccc(C#N)c4)c3Cl)CC2=O)C[C@H](C)O1 (relative stereo) [Example 24, N-(2-Chloro-3-{(4S)-1-[(2S*,6R*)-2,6-dimethyltetrahydropyran-4-yl]-2-imino-4-methyl-6-oxohexahydro-pyrimidin-4-yl]phenyl)-3-cyano-benzamide hydrochloride] | 28 |
| COc1c(C#N)cccc1C(=O)Nc1cccc([C@]2(C)CC(=O)N([C@@H]3CCO[C@H](C)C3)C(=N)N2)c1Cl (relative stereo) [Example 107, N-(2-Chloro-3-{(4S)-2-imino-4-methyl-1-[(2R*,4R*)-2-methyl-tetrahydropyran-4-yl]-6-oxo-hexahydropyrimidin-4-yl}phenyl)-3-cyano-2-methoxybenzamide hydrochloride] | 27 |
| C[C@@H]1C[C@H](N2C(=N)N[C@](C)(c3cccc(NC(=O)c4cc(C#N)ccc4F)c3Cl)CC2=O)CCO1 (relative stereo) [Example 76, N-(2-Chloro-3-{(4S)-2-imino-4-methyl-1-{(2R*,4R*)-2-methyl-tetrahydropyran-4-yl]-6-oxo-hexahydropyrimidin-4-yl}phenyl)-5-cyano-2-fluorobenzamide hydrochloride] | 11 |
| C[C@@H]1C[C@H](N2C(=N)N[C@](C)(c3cccc(NC(=O)c4cc(C(F)(F)F)cnn4)c3Cl)CC2=O)CCO1 (relative stereo) [Example 55, N-(2-Chloro-3-{(4S)-2-imino-4-methyl-1-[(2R*,4R*)-2-methyl-tetrahydropyran-4-yl]-6-oxo-hexahydropyrimidin-4-yl}phenyl)-5-(trifluoromethyl)pyridazine-3-carboxamide hydrochloride] | 53 |
| C[C@@H]1C[C@H](N2C(=N)N[C@](C)(c3cccc(NC(=O)c4cc(C#N)ccc4Cl)c3Cl)CC2=O)CCO1 (relative stereo) [Example 98, 2-Chloro-N-(2-chloro-3-{(4S)-2-imino-4-methyl-1-[(2R*,4R*)-2-methyltetrahydropyran-4-yl]-6-oxo-hexahydropyrimidin-4-yl}phenyl)-5-cyanobenzamide hydrochloride] | 45 |
| Cc1cn(-c2cccc(C(=O)Nc3cccc([C@]4(C)CC(=O)N([C@@H]5CCO[C@H](C)C5)C(=N)N4)c3Cl)c2)cn1 (relative stereo) [Example 110, N-(2-Chloro-3-{(4S)-2-imino-4-methyl-1-[(2R*,4R*)-2-methyl-tetrahydropyran-4-yl]-6-oxo-hexahydropyrimidin-4-yl}phenyl)-3-(4-methylimidazol-1-yl)-benzamide hydrochloride] | 288 |

Same assay, conditions: Plasmodium falciparum, Erythrocyte; P. falciparum 3D7 in human erythrocytes, 72 h incubation, SYBR green fluorescence; read-out: IC50

| IC50 [nM] | Compound |
| --- | --- |
| 707 | C[C@@H]1C[C@H](N2C(=N)N[C@](C)(c3cccc(NC(=O)c4ccc[n+]([O-])c4)c3Cl)CC2=O)CCO1 (relative stereo) [Example 112, N-(2-Chloro-3-{(4S)-2-imino-4-methyl-1-[(2R*,4R*)-2-methyl-tetrahydropyran-4-yl]-6-oxo-hexahydropyrimidin-4-yl]phenyl)-1-oxidopyridin-1-ium-3-carboxamide hydrochloride] |
